Source: ChEMBL document CHEMBL1130735, “A paclitaxel analogue with a 2(3-->20)abeotaxane skeleton: synthesis and biological evaluation” (Bioorg Med Chem Lett, 1998)
In brackets after ≈: the same amount, converted by molar mass.

Key:
Format in all cases: functional, cell-based
[1] = Cytotoxicity was evaluated against […] cells
[2] = Cytotoxicity was evaluated against MEL28 melanoma cells; conditions: Homo sapiens, SK-MEL-28
[3] = test system: P388; test: Cytotoxicity was evaluated against P388 mouse lymphoma cells
[4] = test system: HT-29; test: Cytotoxicity was evaluated against HT-29 human colon adenocarcinoma cells

## CC(=O)O[C@H]1C[C@H]2[C@@H](OC(C)=O)/C=C3\C[C@](C)(C(=O)[C@H](O)C(=C1C)C2(C)C)[C@@H](O)C[C@@H]3O
[1]
  IC50: > 10 µg/mL
[2]
  IC50: > 10 µg/mL
[3]
  IC50: > 10 µg/mL
[4]
  IC50: > 10 µg/mL

## CC(=O)O[C@H]1C(=O)[C@@]2(C)[C@H]([C@H](OC(=O)c3ccccc3)[C@]3(O)C[C@H](OC(=O)[C@H](O)[C@@H](NC(=O)c4ccccc4)c4ccccc4)C(C)=C1C3(C)C)[C@]1(OC(C)=O)CO[C@@H]1C[C@@H]2O [PACLITAXEL]
[1]
  IC50: 0.002 µg/mL (≈ 0.00234 µM)
[2]
  IC50: 0.002 µg/mL (≈ 0.00234 µM)
[3]
  IC50: 0.2 µg/mL (≈ 0.234 µM)
[4]
  IC50: 0.002 µg/mL (≈ 0.00234 µM)

## CC1=C2[C@@H](O)C(=O)[C@@]3(C)CC(C[C@H](OC(=O)c4ccccc4)[C@H](C[C@@H]1OC(=O)[C@H](O)[C@H](NC(=O)c1ccccc1)c1ccccc1)C2(C)C)[C@@H](O)C[C@@H]3O
[1]
  IC50: 6 µg/mL (≈ 8.11 µM)
[2]
  IC50: 6 µg/mL (≈ 8.11 µM)
[3]
  IC50: 6 µg/mL (≈ 8.11 µM)
[4]
  IC50: 6 µg/mL (≈ 8.11 µM)
